According to patent US20250346593A1, “IMIDAZO(1,2-1)PYRIDINE DERIVATIVES AS RIPK2 INHIBITORS” (Interline Therapeutics, Inc., priority 2022, published 2025):
Read-outs that look alike come from different tables or passages of the source.

What was measured:
[1] = system: NF-κB pathway (SEAP) in THP1-Dual cells; assay: THP-1 Dual cell SEAP assay (L18-MDP stimulated); format: cell-based; conditions: Homo sapiens, THP1-Dual, read-out: NFkB THP1 IC50
[2] = target: GST-RIPK2 fusion protein (human RIPK2 amino acids 1-310) (Homo sapiens (Human), UniProt O43353); assay: RIPK2 binding competition assay (TR-FRET, Tracer 199)
[3] = read-out: RIPK2 IC50, RIPK2 binding competition assay

GST-RIPK2 fusion protein (human RIPK2 amino acids 1-310), sequence (O43353 1-310): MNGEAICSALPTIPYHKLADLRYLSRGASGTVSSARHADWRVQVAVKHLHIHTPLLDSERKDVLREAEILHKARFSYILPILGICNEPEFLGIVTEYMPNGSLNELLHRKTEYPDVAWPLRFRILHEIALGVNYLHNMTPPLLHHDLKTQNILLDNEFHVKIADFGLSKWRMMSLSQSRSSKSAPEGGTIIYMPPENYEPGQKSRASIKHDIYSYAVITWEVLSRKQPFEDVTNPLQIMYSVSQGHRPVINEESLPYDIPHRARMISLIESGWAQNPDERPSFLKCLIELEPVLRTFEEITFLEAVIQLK

Structure (SMILES) | IC50 [1] | IC50 [2, 3] | IC50 [2]
COc1cc2ncc(-c3ccc(N)cn3)n2cc1S(=O)(=O)C(C)(C)C [Example 71, 6-(6-(tert-butylsulfonyl)-7-methoxyimidazo[1,2-a]pyridin-3-yl)pyridin-3-amine] | > 1000 nM | > 20 nM | –
COc1cn2ncc(-c3ccc(N)nc3F)c2cc1S(=O)(=O)C(C)(C)C [Example 72, 5-(5-(tert-butylsulfonyl)-6-methoxypyrazolo[1,5-a]pyridin-3-yl)-6-fluoropyridin-2-amine] | > 1000 nM | > 20 nM | –
COc1cc2ncc(-c3cnc(N)c(F)c3)n2cc1S(=O)(=O)C(C)(C)C [Example 73, 5-(6-(tert-butylsulfonyl)-7-methoxyimidazo[1,2-a]pyridin-3-yl)-3-fluoropyridin-2-amine] | > 1000 nM | > 20 nM | –
COc1cc2ncc(-c3cc(OC)c(N)nc3F)n2cc1S(=O)(=O)C(C)(C)C [Example 74, 5-(6-(tert-butylsulfonyl)-7-methoxyimidazo[1,2-a]pyridin-3-yl)-6-fluoro-3-methoxypyridin-2-amine] | > 1000 nM | – | 2.5 to 20 nM
COc1cc2ncc(-c3cc(Cl)c(N)nc3F)n2cc1S(=O)(=O)C(C)(C)C [Example 75, 5-(6-(tert-butylsulfonyl)-7-methoxyimidazo[1,2-a]pyridin-3-yl)-3-chloro-6-fluoropyridin-2-amine] | 50 to 250 nM | – | 2.5 to 20 nM
COc1cc2ncc(-c3ccc(N)c(OC)c3F)n2cc1S(=O)(=O)C(C)(C)C [Example 76, 4-(6-(tert-butylsulfonyl)-7-methoxyimidazo[1,2-a]pyridin-3-yl)-3-fluoro-2-methoxyaniline] | > 1000 nM | > 20 nM | –
COc1cc2ncc(-c3ccc(N(C)C)nc3F)n2cc1S(=O)(=O)C(C)(C)C [Example 77, 5-(6-(tert-butylsulfonyl)-7-methoxyimidazo[1,2-a]pyridin-3-yl)-6-fluoro-N,N-dimethylpyridin-2-amine] | > 1000 nM | > 20 nM | –
COc1cc(N)ncc1-c1cnc2cc(OC)c(S(=O)(=O)C(C)(C)C)cn12 [Example 78, 5-(6-(tert-butylsulfonyl)-7-methoxyimidazo[1,2-a]pyridin-3-yl)-4-methoxypyridin-2-amine] | > 1000 nM | > 20 nM | –
COc1cc2ncc(-c3ccc(N)nc3OC)n2cc1S(=O)(=O)C(C)(C)C [Example 79, 5-(6-(tert-butylsulfonyl)-7-methoxyimidazo[1,2-a]pyridin-3-yl)-6-methoxypyridin-2-amine] | > 1000 nM | > 20 nM | –
COc1cc2ncc(-c3cc(C#N)c(N)cc3F)n2cc1S(=O)(=O)C(C)(C)C [Example 80, 2-amino-5-(6-(tert-butylsulfonyl)-7-methoxyimidazo[1,2-a]pyridin-3-yl)-4-fluorobenzonitrile] | 250 to 1000 nM | – | 2.5 to 20 nM
COc1cc2ncc(-c3cc(F)c(N)cc3F)n2cc1S(=O)(=O)C(C)(C)C [Example 81, 4-(6-(tert-butylsulfonyl)-7-methoxyimidazo[1,2-a]pyridin-3-yl)-2,5-difluoroaniline] | 250 to 1000 nM | – | 2.5 to 20 nM
COc1cc2ncc(-c3cc(F)c(N)nc3F)n2cc1S(=O)(=O)C(C)(C)C [Example 82, 5-(6-(tert-butylsulfonyl)-7-methoxyimidazo[1,2-a]pyridin-3-yl)-3,6-difluoropyridin-2-amine] | 250 to 1000 nM | – | 2.5 to 20 nM
COc1cc2ncc(-c3ccc(N)c(F)c3F)n2cc1S(=O)(=O)C(C)(C)C [Example 83, 4-(6-(tert-butylsulfonyl)-7-methoxyimidazo[1,2-a]pyridin-3-yl)-2,3-difluoroaniline] | > 1000 nM | > 20 nM | –
COc1cc2ncc(-c3cnc(N)c(C4CC4)c3)n2cc1S(=O)(=O)C(C)(C)C [Example 84, 5-(6-(tert-butylsulfonyl)-7-methoxyimidazo[1,2-a]pyridin-3-yl)-3-cyclopropylpyridin-2-amine] | > 1000 nM | > 20 nM | –
COc1cc2ncc(-c3ccc(N)c(Cl)c3)n2cc1S(=O)(=O)C(C)(C)C [Example 85, 4-(6-(tert-butylsulfonyl)-7-methoxyimidazo[1,2-a]pyridin-3-yl)-2-chloroaniline] | 250 to 1000 nM | – | 2.5 to 20 nM
COc1cc2ncc(-c3ccc(N)c(Cl)c3F)n2cc1S(=O)(=O)C(C)(C)C [Example 86, 4-(6-(tert-butylsulfonyl)-7-methoxyimidazo[1,2-a]pyridin-3-yl)-2-chloro-3-fluoroaniline] | > 1000 nM | – | 2.5 to 20 nM
COc1cc(-c2cnc3cc(OC)c(S(=O)(=O)C(C)(C)C)cn23)ccc1N [Example 87, 4-(6-(tert-butylsulfonyl)-7-methoxyimidazo[1,2-a]pyridin-3-yl)-2-methoxyaniline] | > 1000 nM | – | 2.5 to 20 nM
COc1cc2ncc(-c3cnc(N)c(OC(F)(F)F)c3)n2cc1S(=O)(=O)C(C)(C)C [Example 88, 5-(6-(tert-butylsulfonyl)-7-methoxyimidazo[1,2-a]pyridin-3-yl)-3-(trifluoromethoxy) pyridin-2-amine] | > 1000 nM | > 20 nM | –

Structure (SMILES) | IC50 [1] | IC50 [2, 3] | IC50 [2]
COc1cc2ncc(-c3ccc(N)c(OC(F)(F)F)c3)n2cc1S(=O)(=O)C(C)(C)C [Example 89, 4-(6-(tert-butylsulfonyl)-7-methoxyimidazo[1,2-a]pyridin-3-yl)-2-(trifluoromethoxy)aniline] | > 1000 nM | – | 2.5 to 20 nM
COc1cc(-c2cnc3cc(OC)c(S(=O)(=O)C(C)(C)C)cn23)c(F)cc1N [Example 90, 4-(6-(tert-butylsulfonyl)-7-methoxyimidazo[1,2-a]pyridin-3-yl)-5-fluoro-2-methoxyaniline] | 250 to 1000 nM | – | 2.5 to 20 nM
COc1cc2ncc(-c3ccc(N)c(C#N)c3F)n2cc1S(=O)(=O)C(C)(C)C [Example 91, 6-amino-3-(6-(tert-butylsulfonyl)-7-methoxyimidazo[1,2-a]pyridin-3-yl)-2-fluorobenzonitrile] | > 1000 nM | – | 2.5 to 20 nM
COc1cc2ncc(-c3cnc(N)c(CO)c3)n2cc1S(=O)(=O)C(C)(C)C [Example 92, (2-amino-5-(6-(tert-butylsulfonyl)-7-methoxyimidazo[1,2-a]pyridin-3-yl)pyridin-3-yl)methanol] | > 1000 nM | > 20 nM | –
COc1cc2ncc(-c3cnc(N)nc3)n2cc1S(=O)(=O)C(C)(C)C [Example 93, 5-(6-(tert-butylsulfonyl)-7-methoxyimidazo[1,2-a]pyridin-3-yl)pyrimidin-2-amine] | > 1000 nM | > 20 nM | –
CNc1ncc(-c2cnc3cc(OC)c(S(=O)(=O)C(C)(C)C)cn23)cc1F [Example 94, 5-(6-(tert-butylsulfonyl)-7-methoxyimidazo[1,2-a]pyridin-3-yl)-3-fluoro-N-methylpyridin-2-amine] | > 1000 nM | > 20 nM | –
COc1cn2ncc(-c3ccc(N)c(C#N)c3)c2cc1S(=O)(=O)C(C)(C)C [Example 95, 2-amino-5-(5-(tert-butylsulfonyl)-6-methoxypyrazolo[1,5-a]pyridin-3-yl)benzonitrile] | 250 to 1000 nM | – | 2.5 to 20 nM
COc1cc2ncc(-c3cc(C)c(N)nc3F)n2cc1S(=O)(=O)C(C)(C)C [Example 96, 5-(6-(tert-butylsulfonyl)-7-methoxyimidazo[1,2-a]pyridin-3-yl)-6-fluoro-3-methylpyridin-2-amine] | 250 to 1000 nM | – | 2.5 to 20 nM
COc1cn2ncc(-c3cnc(N)c(F)c3)c2cc1S(=O)(=O)C(C)(C)C [Example 97, 5-(5-(tert-butylsulfonyl)-6-methoxypyrazolo[1,5-a]pyridin-3-yl)-3-fluoropyridin-2-amine] | 250 to 1000 nM | – | 2.5 to 20 nM
COc1cc2ncc(-c3cnc(N)c(C(F)F)c3)n2cc1S(=O)(=O)C(C)(C)C [Example 98, 5-(6-(tert-butylsulfonyl)-7-methoxyimidazo[1,2-a]pyridin-3-yl)-3-(difluoromethyl)pyridin-2-amine] | > 1000 nM | > 20 nM | –
COc1cc2ncc(-c3ccc(N)nc3Cl)n2cc1S(=O)(=O)C(C)(C)C [Example 99, 5-(6-(tert-butylsulfonyl)-7-methoxyimidazo[1,2-a]pyridin-3-yl)-6-chloropyridin-2-amine] | > 1000 nM | > 20 nM | –
COc1cn2ncc(-c3cc(F)c(N)nc3F)c2cc1S(=O)(=O)C(C)(C)C [Example 100, 5-(5-(tert-butylsulfonyl)-6-methoxypyrazolo[1,5-a]pyridin-3-yl)-3,6-difluoropyridin-2-amine] | 250 to 1000 nM | – | 2.5 to 20 nM
COc1cc2ncc(-c3ccc(N4CCOCC4)nc3F)n2cc1S(=O)(=O)C(C)(C)C [Example 101, 4-(5-(6-(tert-butylsulfonyl)-7-methoxyimidazo[1,2-a]pyridin-3-yl)-6-fluoropyridin-2-yl)morpholine] | > 1000 nM | > 20 nM | –
COc1cc2ncc(-c3cc(Cl)c(N)nc3OC)n2cc1S(=O)(=O)C(C)(C)C [Example 102, 5-(6-(tert-butylsulfonyl)-7-methoxyimidazo[1,2-a]pyridin-3-yl)-3-chloro-6-methoxypyridin-2-amine] | 250 to 1000 nM | – | 2.5 to 20 nM
COc1cc2ncc(-c3cnc(N)cn3)n2cc1S(=O)(=O)C(C)(C)C [Example 103, 5-(6-(tert-butylsulfonyl)-7-methoxyimidazo[1,2-a]pyridin-3-yl)pyrazin-2-amine] | > 1000 nM | > 20 nM | –
COc1cn2ncc(-c3cc(OC)c(N)nc3F)c2cc1S(=O)(=O)C(C)(C)C [Example 104, 5-(5-(tert-butylsulfonyl)-6-methoxypyrazolo[1,5-a]pyridin-3-yl)-6-fluoro-3-methoxypyridin-2-amine] | > 1000 nM | – | 2.5 to 20 nM
COc1cn2ncc(-c3cc(Cl)c(N)nc3F)c2cc1S(=O)(=O)C(C)(C)C [Example 105, 5-(5-(tert-butylsulfonyl)-6-methoxypyrazolo[1,5-a]pyridin-3-yl)-3-chloro-6-fluoropyridin-2-amine] | 50 to 250 nM | – | 2.5 to 20 nM
